The text below walks through data of patent US10538516B2, “Oxadiazole derivative and pharmaceutical containing same” (National Center for Geriatrics and Gerontology, priority 2015, dated 2020).

The target of one assay is T1, GAβ-dependent amyloid fibril formation (Human Aβ1-40 + GM1-containing liposome) (Homo sapiens, UniProt P05067).
T1 construct: Human Aβ1-40 (cat. #4307-v, prepared by Peptide Institute); purchased Peptide Institute 4307-v
T1 sequence (P05067 672-711 limits assumed): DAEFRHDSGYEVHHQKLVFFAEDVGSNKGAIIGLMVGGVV
The assay is described as follows: Thioflavin T (ThT) assay of GAβ-dependent amyloid fibril formation (Aβ1-40 with GM1-containing liposome). In kind it is biochemical. As to conditions: @25 μM; read-out: ThT Inhibitory activity (% inhibition). On the procedure:
<3. Evaluation of the Compounds Based on the Inhibitory Activity Against Amyloid Fibril Formation in Thioflabin T (ThT) Assay>
Inhibitory activity against GAβ-dependent amyloid fibril formation of the above compounds 1 to 133 and 142 to 267 were evaluated in ThT assay.
(1) Preparation of Aβ Solution
Human Aβ1-40 (cat. #4307-v, prepared by Peptide Institute) was dissolved in a 0.02% ammonia solution (400 μM), and the mixture was treated in an ultracentrifuge (S110AT rotor, Hitachi) at 100,000 rpm for 3 hours. Approximately two-thirds of the upper layer of the supernatant was recovered and protein concentration was measured. The Aβ solution was aliquoted and stored at −80° C. until use, was melted immediately before use, and was diluted to 75 μM using phosphate buffer (PBS: cat. #10010, manufactured by Life Technologies).
(2) Preparation of GM1-Containing Liposome
Using a mixed solution of chloroform/methanol (1:1) as a solvent, a mixed solution of 100 mM each of cholesterol and sphingomyelin (both manufactured by Sigma-Aldrich) was prepared. To this mixed solution, GM 1 (cat. #1061, manufactured by Matreya Co.) was dissolved to make a solution of 50 mM concentration. This lipid mixed solution was aliquoted into glass test tubes and stored at −20° C. until use, was melted before use, was mixed with chloroform/methanol mixture (1:1) and mixed, and then the solvent was removed by applying nitrogen gas to the suspension. The dried lipid mixture was resuspended in PBS to be a GM1 concentration of 2.5 mM, and frozen and thawed 5 times with liquid nitrogen. The lipid suspension was centrifuged at 15,000 rpm for 10 minutes and the precipitate was resuspended in PBS to be a GM1 concentration of 2.5 mM. Using an ultrasonic crusher (XL-2000, MISONIX Co., Ltd.) equipped with a microchip, ultrasonic treatment was repeated on ice for 10 seconds until the suspension became transparent, and GM1-containing liposome was prepared. Immediately prior to use, PBS was added and diluted to a GM 1 concentration of 75 μM.
(3) Preparation of Compound Solution
Compounds 1 to 133 and 142 to 267 were prepared as 10 mM and 2 mM solution in DMSO, respectively. And each solution was diluted to 75 μM or 15 μM with PBS immediately prior to use.
(4) GAβ-Dependent Amyloid Fibril Formation
To a 96-well microplate, 5 μl each of the 75 μM Aβ solution prepared above (1), the compound solution prepared in (3) or 0.75% DMSO was mixed and incubated at room temperature for 10 minutes. Then, 5 μl each of 750 μM GM1-containing liposome prepared in (2) was added to each well and incubated at 37° C. for 18 hours.
ThT (manufactured by Sigma-Aldrich) was adjusted to 5 μM using 50 mM glycine-NaOH buffer (pH 8.5). Immediately before measurement, 10 μl from each well of (4) was transferred to a 96-well black plate. 50 μl of 5 μM ThT solution was added from each injector to each well using a multi-plate reader (ARVO-HTS, manufactured by Perkin Elmer), and then the optimal fluorescence of ThT bound to amyloid fiber (excitation wavelength 430 nm, fluorescence wavelength 490 nm) was measured.
The fluorescence intensity of ThT indicates the degree of amyloid fibrils formation. By calculating the ratio of the ThT fluorescence intensity between addition of the compound and without addition of the compound, the inhibition rate against amyloid fibril formation by the compound was calculated.
Regarding `COc1ccc(-c2noc([C@@H](N)Cc3c[nH]c4ccccc34)n2)cc1` [Compound 18, (S)-2-(1H-indol-3-yl)-1-{3-(4-methoxyphenyl)-1,2,4-oxadiazol-5-yl}ethan-1-amine], the inhibition at 25 µM came out at 86%.

Still in this assay, the particulars now being: inhibition rate against amyloid fibril formation, final concentration of the compound 25 μM; 25 µM.
As to `O=C(NC(CO)c1nc(-c2ccc(C(F)(F)F)cc2)no1)c1ccc(F)cc1` (stereo in doubt) [Compound 152, 4-fluoro-N-[(1R)-2-hydroxy-1-{3-[4-(trifluoromethyl)phenyl]-1,2,4-oxa-diazol-5-yl}ethyl] benzamide], the “Inhibitory activity ABC evaluation” value was “B (40% or more and less than 80% were evaluated as B)”.

The assay is the same for the next values; noted with them: inhibition rate against amyloid fibril formation, final concentration of the compound 25 μM; read-out: Inhibitory activity ABC evaluation.
On to `O=C(c1ccc(Cl)cc1)N1CC(O)CC1c1nc(-c2ccc(OC(F)(F)F)cc2)no1` (stereo in doubt) [Compound 85, (4-chlorophenyl) ((2S,4S)-4-hydroxy-2-[3-{4-(trifluoromethoxy)phenyl}-1,2,4-oxadiazol-5-yl]pyrrolidin-1-yl)methanone], for which the inhibition at 25 µM lay within 40 to 80%.
Same read-out and setting: the value for `CCCN(C(=O)CCc1nc(-c2ccc(OC)cc2)no1)c1cncc(Cl)c1` [Compound 5, N-(5-chloropyridin-3-yl)-3-{3-(4-methoxyphenyl)-1,2,4-oxadiazol-5-yl}-N-propylpropanamide] was 40 to 80%; that for `CCN(C(=O)CCc1nc(-c2ccc(OC)cc2)no1)c1cccc(Cl)c1` [Compound 7, N-(3-chlorophenyl)-N-ethyl-3-{3-(4-methoxyphenyl)-1,2,4-oxadiazol-5-yl}propanamide] was 40 to 80%.
Regarding `COc1ccc(-c2noc(CCC(=O)Nc3cccc(Cl)c3)n2)cc1` [Compound 8, N-(3-chlorophenyl)-3-{3-(4-methoxyphenyl)-1,2,4-oxadiazol-5-yl}propanamide], the inhibition at 25 µM is under 40%.
Same read-out and setting: in the case of `CCCN(Cc1cccc(Cl)c1)C(=O)CCc1nc(-c2ccc(OC)cc2)no1` [Compound 9, N-(3-chlorobenzyl)-3-{3-(4-methoxyphenyl)-1,2,4-oxadiazol-5-yl}-N-propylpropanamide] it was 40 to 80%.
For the compound `CN(C(=O)CCc1nc(-c2ccc(OC(F)(F)F)cc2)no1)c1cccc(Cl)c1` [Compound 11, N-(3-chlorophenyl)-N-methyl-3-[3-{4-(trifluoromethoxy)phenyl}-1,2,4-oxadiazol-5-yl]propanamide], the inhibition at 25 µM is 40 to 80%.
As for `O=C(CCc1nc(-c2ccc(OC(F)(F)F)cc2)no1)N1CCCc2ccccc21` [Compound 12, 1-{3,4-dihydroquinolin-1(2H)-yl}-3-[3-{4-(trifluoromethoxy)phenyl}-1,2,4-oxadiazol-5-yl]propan-1-one], the inhibition at 25 µM was in the range of 40 to 80%.
The same measure, in the same setting: in the case of `CN(C(=O)CCc1nc(-c2ccc(O)cc2)no1)c1cccc(Cl)c1` [Compound 13, N-(3-chloropbenyl)-3-{3-(4-hydroxyphenyl)-1,2,4-oxadiazol-5-yl}-N-methylpropanamide] it was 40 to 80%.
Still for that read-out and setting: in the case of `CN(Cc1cccc(F)c1)C(=O)CCc1nc(-c2ccc(O)cc2)no1` [Compound 14, N-(3-fluorobenzyl)-3-{3-(4-hydroxyphenyl)-1,2,4-oxadiazol-5-yl}-N-methylpropanamide] it was under 40%.
On the same count and under the same terms, the value for `CN(Cc1ccccc1)C(=O)CCc1nc(-c2ccc3c(c2)OCCO3)no1` [Compound 16, N-benzyl-3-{3-(2,3-dihydrobenzo[b][1,4]dioxin-6-yl)-1,2,4-oxadiazol-5-yl}-N-methylpropanamide] was under 40%.
Take `O=C(CCc1nc(-c2ccc3c(c2)OCCO3)no1)N1CCc2ccccc2C1` [Compound 17, 3-{3-(2,3-dihydrobenzo[b][1,4]dioxin-6-yl)-1,2,4-oxadiazol-5-yl}-1-{3,4-dihydroisoquinolin-2(1H)-yl}propan-1-one]: the inhibition at 25 µM lay in the range of 40 to 80%.
As to `COc1ccc(-c2noc([C@@H](N)Cc3c[nH]c4ccccc34)n2)cc1` [Compound 18, (S)-2-(1H-indol-3-yl)-1-{3-(4-methoxyphenyl)-1,2,4-oxadiazol-5-yl}ethan-1-amine], the inhibition at 25 µM is over 80%.
With `CCCN(C(=O)CCc1nc(-c2ccc(O)cc2)no1)c1cccc(Cl)c1` [Compound 19, N-(3-chlorophenyl)-3-{3-(4-hydroxyphenyl)-1,2,4-oxadiazol-5-yl}-N-propylpropanamide], the inhibition at 25 µM was 40 to 80%.
`CC(C)(NC(=O)c1ccc(Cl)cc1)c1nc(-c2ccc(OC(F)(F)F)cc2)no1` [Compound 20, 4-chloro-N-(2-[3-{4-(trifluoromethoxy)phenyl}-1,2,4-oxadiazol-5-yl]propan-2-yl)benzamide]: the inhibition at 25 µM is 40 to 80%.
As to `CN(C(=O)c1ccc(Cl)cc1)C(C)(C)c1nc(-c2ccc(OC(F)(F)F)cc2)no1` [Compound 21, 4-chloro-N-methyl-N-(2-{3-[4-(trifluoromethoxy)phenyl]-1,2,4-oxadiazole-5-yl}propan-2-yl)benzamide], the inhibition at 25 µM is under 40%.
As for `COc1ccc(-c2noc(C(C)(C)N(C)C(=O)c3ccc(Cl)cc3)n2)cc1` [Compound 22, 4-chloro-N-[2-{3-(4-methoxyphenyl)-1,2,4-oxadiazol-5-yl}propan-2-yl]-N-methyl-benzamide], the inhibition at 25 µM is under 40%.
Take `O=C1CC(c2nc(-c3ccc(OC(F)(F)F)cc3)no2)CN1c1ccc(Cl)cc1` (stereo not drawn) [Compound 23, l-(4-chlorophenyl)-4-[3-{4-(trifluoromethoxy)phenyl}-1,2,4-oxadiazol-5-yl]pyrrolidin-2-one]: the inhibition at 25 µM is 40 to 80%.
As to `COc1ccc(-c2noc(C3CC(=O)N(c4ccc(Cl)cc4)C3)n2)cc1` (stereo not drawn) [Compound 24, 1-(4-chlorophenyl)-4-{3-(4-methoxyphenyl)-1,2,4-oxadiazol-5-yl}pyrrolidin-2-one], the inhibition at 25 µM fell in the range of 40 to 80%.
The same measure, in the same setting: in the case of `N[C@@H](Cc1c[nH]c2ccccc12)c1nc(-c2ccc(OC(F)(F)F)cc2)no1` [Compound 25, (S)-2-(1H-indole-3-yl)-1-[3-(4-trifluoromethoxyphenyl)-1,2,4-oxadiazole-5-yl]ethane-1-amine] it was over 80%; in that of `O=C1CC(c2nc(-c3ccc(OC(F)(F)F)cc3)no2)CN1c1ccc(F)cc1` (stereo not drawn) [Compound 26, l-(4-fluorophenyl)-4-[3-{4-(trifluoro-methoxy)phenyl}-1,2,4-oxadiazol-5-yl]pyrrolidin-2-one], 40 to 80%; in that of `O=C1CC(c2nc(-c3ccc(OC(F)(F)F)cc3)no2)CN1c1cccc(Cl)c1` (stereo not drawn) [Compound 27, 1-(3-chlorophenyl)-4-{3-[4-(trifluoromethoxy)phenyl]-1,2,4-oxadiazole-5-yl}pyrrolidin-2-one], 40 to 80%.
`O=C1CC(c2nc(-c3ccc(OC(F)(F)F)cc3)no2)CN1c1ccc(Cl)cc1F` (stereo not drawn) [Compound 28, 1-(4-chloro-2-fluorophenyl)-4-[3-{4-(trifluoromethoxy)phenyl}-1,2,4-oxadiazol-5-yl]pyrrolidin-2-one]: the inhibition at 25 µM lay within 40 to 80%.
Still for that read-out and setting: in the case of `O=C(NC1(c2nc(-c3ccc(OC(F)(F)F)cc3)no2)CCCC1)c1ccc(Cl)cc1` [Compound 29, 4-chloro-N-(1-[3-{4-(trifluoromethoxy)phenyl}-1,2,4-oxadiazol-5-yl]cyclopentyl) benzamide] it was under 40%.
The same measure, in the same setting: in the case of `O=C(NC1(c2nc(-c3ccc(OC(F)(F)F)cc3)no2)CCCC1)c1ccc(F)cc1` [Compound 30, 4-fluoro-N-(1-[3-{4-(trifluoromethoxy)phenyl}-1,2,4-oxadiazol-5-yl]cyclopentyl) benzamide] it was under 40%; in that of `O=C(NC1(c2nc(-c3ccc(OC(F)(F)F)cc3)no2)CCCC1)c1ccc(Cl)nc1` [Compound 31, 6-chloro-N-(1-[3-{4-(trifluoromethoxy)phenyl}-1,2,4-oxadiazol-5-yl]cyclopentyl) nicotinamide], under 40%.
